In experiment [1] the test system is BJ. The experiment can be described thus: BJ-TERT-LT-ST fibroblast viability loss – cell-based, RAS-independent, luminescence, dose response (AID 1935).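 Further: BJ fibroblasts immortalized with TERT plus LT and ST oncogenes.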 The class given is functional. The following applies: Homo sapiens.
Experiment [2] in a line: DRD fibroblast viability loss – cell-based, non-viral oncogenic, luminescence, dose response (AID 1934). The class given is functional. The following applies: Homo sapiens.
Experiment [3] has as its system BJ. Put plainly: BJ-TERT fibroblast viability loss – cell-based, RAS-independent, luminescence, dose response (AID 1933). Format: functional. The following applies: Homo sapiens.
The test system of experiment [4] is BJ. The experiment can be described thus: growth inhibition of engineered Ras-driven BJ cells – cell-based, alamar blue fluorescence, cherrypicked samples, dose response (AID 2631).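 Further: confirmatory dose-response assay in RAS-dependent BJ fibroblasts engineered with TERT, LT and ST, with cytotoxicity read by fluorescence.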 The class given is functional. The following applies: Homo sapiens.
The target of experiment [5] is T1, Replicative DNA helicase DnaB (Mycobacterium tuberculosis, UniProt P9WMR3).
T1 sequence (P9WMR3 whole entry): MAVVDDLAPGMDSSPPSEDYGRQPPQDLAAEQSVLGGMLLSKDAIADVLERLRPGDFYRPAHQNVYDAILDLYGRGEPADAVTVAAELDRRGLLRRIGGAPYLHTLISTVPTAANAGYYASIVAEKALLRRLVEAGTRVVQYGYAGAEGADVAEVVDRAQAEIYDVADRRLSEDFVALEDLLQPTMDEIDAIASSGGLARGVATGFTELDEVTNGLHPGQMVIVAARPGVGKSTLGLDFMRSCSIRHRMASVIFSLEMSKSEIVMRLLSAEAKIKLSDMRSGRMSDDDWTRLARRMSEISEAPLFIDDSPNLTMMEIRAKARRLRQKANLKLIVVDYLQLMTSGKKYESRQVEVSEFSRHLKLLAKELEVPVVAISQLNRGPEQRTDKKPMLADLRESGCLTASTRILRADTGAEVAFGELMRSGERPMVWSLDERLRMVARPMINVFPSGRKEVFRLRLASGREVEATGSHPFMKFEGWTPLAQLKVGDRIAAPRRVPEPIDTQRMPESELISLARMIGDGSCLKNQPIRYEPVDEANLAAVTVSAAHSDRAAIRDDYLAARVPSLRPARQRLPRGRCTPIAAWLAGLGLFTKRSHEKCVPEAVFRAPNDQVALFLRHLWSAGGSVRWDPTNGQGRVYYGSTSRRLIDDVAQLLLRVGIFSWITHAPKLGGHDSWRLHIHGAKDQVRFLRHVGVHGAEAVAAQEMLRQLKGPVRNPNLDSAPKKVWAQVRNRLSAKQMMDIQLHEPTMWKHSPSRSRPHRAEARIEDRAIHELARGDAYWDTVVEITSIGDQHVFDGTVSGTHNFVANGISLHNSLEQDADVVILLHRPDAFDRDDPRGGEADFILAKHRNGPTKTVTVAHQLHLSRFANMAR
The experiment can be described thus: DnaB intein splicing inhibitors, dose response, biochemical, cell-free fluorescence (AID 449749). Format: functional.

Experiment [6] in a line: Luminescent dose response cell-based high throughput screening assay for inhibitors of the Janus kinase 2 mutant JAK2V617F. [Related pubchem assays: 1446 (Primary screen.), 1521 (Confirmation assay.), 1486 (Counter screen.)]. Format: functional.
The next experiment deals with Paired box protein Pax-8 (Homo sapiens, UniProt Q06710). The experiment can be described thus: PAX8 transcriptional activity inhibition in RMG-I – RMG-I cells, luciferase, cherry-pick, dose response (AID 687027).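 Further: luciferase reporter driven by Pax8 target thyroperoxidase promoter measured by SteadyGlo luminescence.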 Format: functional, cell-based.
Experiment [7] in a line: general cell-killing toxicity readout – plate reader, dry powder samples, cytotoxicity control for PAX8 inhibitor project, dose response (AID 743021). Format: functional, cell-based.
Experiment [8] relates to BJ. The experiment can be described thus: cells. The class given is functional, cell-based. Particulars: Homo sapiens.
Another experiment has as its target T2, Protein RecA (Mycobacterium tuberculosis, UniProt P9WHJ3).
T2 sequence (P9WHJ3 whole entry): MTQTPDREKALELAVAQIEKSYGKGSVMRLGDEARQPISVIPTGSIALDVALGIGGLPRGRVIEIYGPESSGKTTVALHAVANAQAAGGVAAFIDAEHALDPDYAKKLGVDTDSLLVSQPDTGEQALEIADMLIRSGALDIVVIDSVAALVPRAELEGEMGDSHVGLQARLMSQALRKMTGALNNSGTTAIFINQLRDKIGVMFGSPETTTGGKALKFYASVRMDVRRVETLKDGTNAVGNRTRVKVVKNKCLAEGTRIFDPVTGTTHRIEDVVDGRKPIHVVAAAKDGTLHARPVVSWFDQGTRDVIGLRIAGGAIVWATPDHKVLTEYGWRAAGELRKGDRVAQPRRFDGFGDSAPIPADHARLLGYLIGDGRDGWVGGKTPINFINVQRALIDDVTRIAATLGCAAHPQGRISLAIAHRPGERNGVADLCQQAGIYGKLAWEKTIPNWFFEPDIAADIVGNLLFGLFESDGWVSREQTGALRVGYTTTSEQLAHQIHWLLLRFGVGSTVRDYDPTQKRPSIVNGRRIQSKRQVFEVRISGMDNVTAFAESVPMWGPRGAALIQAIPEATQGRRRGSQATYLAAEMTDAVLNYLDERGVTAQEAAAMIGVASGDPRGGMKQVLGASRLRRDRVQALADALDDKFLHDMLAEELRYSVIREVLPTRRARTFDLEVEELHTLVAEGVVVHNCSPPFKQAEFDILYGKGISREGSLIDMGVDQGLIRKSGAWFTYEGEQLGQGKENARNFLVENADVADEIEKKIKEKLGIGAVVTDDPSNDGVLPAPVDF
Put plainly: Fluorescence Cell-Free Homogeneous Dose Retest to Identify Inhibitors of RecA-Intein Splicing Activity. [Related pubchem assays (depositor defined):AID2097, AID2223, AID489010, AID492950]. The class given is functional.

The target of experiment [9] is T3, Microphthalmia-associated transcription factor (Homo sapiens, UniProt O75030).
T3 sequence (O75030 whole entry): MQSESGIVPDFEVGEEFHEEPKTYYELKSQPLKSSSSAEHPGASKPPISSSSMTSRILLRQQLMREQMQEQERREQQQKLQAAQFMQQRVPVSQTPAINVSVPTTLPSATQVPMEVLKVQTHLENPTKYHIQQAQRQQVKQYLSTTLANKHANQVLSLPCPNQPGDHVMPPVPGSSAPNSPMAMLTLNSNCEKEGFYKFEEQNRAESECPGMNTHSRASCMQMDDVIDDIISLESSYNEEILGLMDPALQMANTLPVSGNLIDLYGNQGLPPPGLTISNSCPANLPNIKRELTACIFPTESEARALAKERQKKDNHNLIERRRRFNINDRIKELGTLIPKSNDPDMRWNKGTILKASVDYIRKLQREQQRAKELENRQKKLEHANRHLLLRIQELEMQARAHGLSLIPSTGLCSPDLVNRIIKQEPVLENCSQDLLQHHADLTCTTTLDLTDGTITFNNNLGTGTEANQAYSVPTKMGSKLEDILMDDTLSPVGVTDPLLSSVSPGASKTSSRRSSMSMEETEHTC
The experiment can be described thus: reducers of TRPM1 reporter luminescence, concentration series – cell-based, SK-MEL-5, cherry-picked, set 3, MITF inhibitor project, dose response (AID 493073).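 Further: SK-MEL-5 melanoma cells with luciferase driven by the MITF target TRPM1 promoter.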 Format: functional.

Experiment [10] addresses Peroxisome proliferator-activated receptor gamma/Nuclear receptor coactivator 3 (Homo sapiens, UniProt P37231). The class given is functional.
Experiment [11] has as its target Peroxisome proliferator-activated receptor gamma/Nuclear receptor coactivator 2 (Homo sapiens, UniProt P37231). Format: functional.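 Further: agonist potency for raising coactivator recruitment to the receptor.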
The target in experiment [12] is Peroxisome proliferator-activated receptor gamma/Nuclear receptor coactivator 1 (Homo sapiens, UniProt P37231). Format: functional.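 Further: agonist potency as compounds enhance coactivator SRC-1 recruitment to PPARgamma.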
Experiment [13] has as its target T4, Corticotropin-releasing factor receptor 2/Corticotropin-releasing factor-binding protein (Homo sapiens, UniProt P24387+Q13324).
T4 sequence (Q13324 whole entry): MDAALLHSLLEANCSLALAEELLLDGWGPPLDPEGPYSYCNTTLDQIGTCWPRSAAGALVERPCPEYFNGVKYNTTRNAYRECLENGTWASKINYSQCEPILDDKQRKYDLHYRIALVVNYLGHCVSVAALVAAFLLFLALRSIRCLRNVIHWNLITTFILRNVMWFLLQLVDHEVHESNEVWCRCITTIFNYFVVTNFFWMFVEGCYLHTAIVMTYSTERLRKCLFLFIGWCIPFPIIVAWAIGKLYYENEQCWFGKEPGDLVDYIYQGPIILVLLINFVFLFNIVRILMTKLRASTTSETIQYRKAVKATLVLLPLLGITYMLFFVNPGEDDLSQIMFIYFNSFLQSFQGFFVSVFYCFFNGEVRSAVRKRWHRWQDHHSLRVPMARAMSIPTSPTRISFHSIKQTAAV
T4 sequence (P24387 whole entry): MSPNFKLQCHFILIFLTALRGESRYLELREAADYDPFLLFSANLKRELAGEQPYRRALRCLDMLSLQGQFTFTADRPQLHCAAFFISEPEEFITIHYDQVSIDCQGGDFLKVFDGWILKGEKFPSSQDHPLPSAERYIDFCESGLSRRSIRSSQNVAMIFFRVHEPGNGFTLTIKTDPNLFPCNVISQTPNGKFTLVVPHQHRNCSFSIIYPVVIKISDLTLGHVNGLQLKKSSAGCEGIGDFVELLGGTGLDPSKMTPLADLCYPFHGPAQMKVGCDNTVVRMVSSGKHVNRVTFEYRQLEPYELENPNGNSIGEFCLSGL
Put plainly: Dose Response confirmation of uHTS hits for small molecule antagonists of the CRF-binding protein and CRF-R2 receptor complex. The class given is functional. Particulars: read-out: IC50_Mean.

Experiment [14] concerns the target Peroxisome proliferator-activated receptor gamma/Nuclear receptor corepressor 2 (Homo sapiens, UniProt P37231+Q9Y618). The experiment can be described thus: Counterscreen for NR2E3 inverse agonists: TR-FRET-based biochemical high throughput dose response assay to identify inverse agonists of the interaction between peroxisome proliferator-activated receptor gamma (PPARg) and nuclear receptor co-repressor 2 (NCOR2). The class given is functional.

Experiment [15] concerns the target Photoreceptor-specific nuclear receptor (Homo sapiens, UniProt Q9Y5X4). The experiment can be described thus: ligands suppressing NR2E3 nuclear receptor activity – biochemical, TR-FRET, dose response (AID 463256). Format: functional.
Experiment [16] concerns the target T4, Corticotropin-releasing factor receptor 2/Corticotropin-releasing factor-binding protein. Put plainly: activators of CRF receptor 2 with binding protein – uHTS hits, confirmation (AID 602473). The following applies: read-out: EC50_Mean. The class given is functional.

SMILES strings stand for the structures. Active and inactive are the calls of the source. Where only a bound is given, the exact number is not on record here.

Sequence of Paired box protein Pax-8 (Q06710 whole entry): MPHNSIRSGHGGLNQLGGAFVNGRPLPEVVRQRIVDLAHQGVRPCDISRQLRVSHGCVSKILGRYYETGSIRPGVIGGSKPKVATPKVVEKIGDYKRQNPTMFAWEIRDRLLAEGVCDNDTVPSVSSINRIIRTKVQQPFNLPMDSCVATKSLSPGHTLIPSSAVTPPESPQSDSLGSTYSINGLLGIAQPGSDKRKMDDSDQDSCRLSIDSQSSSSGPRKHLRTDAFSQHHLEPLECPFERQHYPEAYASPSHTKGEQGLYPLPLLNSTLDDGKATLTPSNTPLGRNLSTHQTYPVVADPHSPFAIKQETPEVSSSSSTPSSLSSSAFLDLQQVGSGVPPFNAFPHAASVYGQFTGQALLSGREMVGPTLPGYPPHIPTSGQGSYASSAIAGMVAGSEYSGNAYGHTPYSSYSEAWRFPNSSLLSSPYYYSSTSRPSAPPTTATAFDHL
Sequence of Peroxisome proliferator-activated receptor gamma/Nuclear receptor coactivator 1 (P37231 whole entry): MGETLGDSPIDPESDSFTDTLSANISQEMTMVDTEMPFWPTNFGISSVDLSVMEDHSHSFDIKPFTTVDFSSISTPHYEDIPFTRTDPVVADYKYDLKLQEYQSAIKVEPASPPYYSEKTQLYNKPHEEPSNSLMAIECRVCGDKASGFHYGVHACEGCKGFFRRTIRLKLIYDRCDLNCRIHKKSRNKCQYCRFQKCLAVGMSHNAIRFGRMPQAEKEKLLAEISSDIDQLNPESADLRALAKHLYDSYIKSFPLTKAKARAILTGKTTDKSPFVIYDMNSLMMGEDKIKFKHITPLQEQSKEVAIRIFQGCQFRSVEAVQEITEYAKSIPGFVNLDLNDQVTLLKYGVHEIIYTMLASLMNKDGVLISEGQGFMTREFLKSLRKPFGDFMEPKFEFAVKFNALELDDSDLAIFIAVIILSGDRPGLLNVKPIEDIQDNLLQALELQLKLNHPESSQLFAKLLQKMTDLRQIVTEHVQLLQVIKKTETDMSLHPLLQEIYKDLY
Sequence of Peroxisome proliferator-activated receptor gamma/Nuclear receptor coactivator 1 (Q15788 whole entry, further chain): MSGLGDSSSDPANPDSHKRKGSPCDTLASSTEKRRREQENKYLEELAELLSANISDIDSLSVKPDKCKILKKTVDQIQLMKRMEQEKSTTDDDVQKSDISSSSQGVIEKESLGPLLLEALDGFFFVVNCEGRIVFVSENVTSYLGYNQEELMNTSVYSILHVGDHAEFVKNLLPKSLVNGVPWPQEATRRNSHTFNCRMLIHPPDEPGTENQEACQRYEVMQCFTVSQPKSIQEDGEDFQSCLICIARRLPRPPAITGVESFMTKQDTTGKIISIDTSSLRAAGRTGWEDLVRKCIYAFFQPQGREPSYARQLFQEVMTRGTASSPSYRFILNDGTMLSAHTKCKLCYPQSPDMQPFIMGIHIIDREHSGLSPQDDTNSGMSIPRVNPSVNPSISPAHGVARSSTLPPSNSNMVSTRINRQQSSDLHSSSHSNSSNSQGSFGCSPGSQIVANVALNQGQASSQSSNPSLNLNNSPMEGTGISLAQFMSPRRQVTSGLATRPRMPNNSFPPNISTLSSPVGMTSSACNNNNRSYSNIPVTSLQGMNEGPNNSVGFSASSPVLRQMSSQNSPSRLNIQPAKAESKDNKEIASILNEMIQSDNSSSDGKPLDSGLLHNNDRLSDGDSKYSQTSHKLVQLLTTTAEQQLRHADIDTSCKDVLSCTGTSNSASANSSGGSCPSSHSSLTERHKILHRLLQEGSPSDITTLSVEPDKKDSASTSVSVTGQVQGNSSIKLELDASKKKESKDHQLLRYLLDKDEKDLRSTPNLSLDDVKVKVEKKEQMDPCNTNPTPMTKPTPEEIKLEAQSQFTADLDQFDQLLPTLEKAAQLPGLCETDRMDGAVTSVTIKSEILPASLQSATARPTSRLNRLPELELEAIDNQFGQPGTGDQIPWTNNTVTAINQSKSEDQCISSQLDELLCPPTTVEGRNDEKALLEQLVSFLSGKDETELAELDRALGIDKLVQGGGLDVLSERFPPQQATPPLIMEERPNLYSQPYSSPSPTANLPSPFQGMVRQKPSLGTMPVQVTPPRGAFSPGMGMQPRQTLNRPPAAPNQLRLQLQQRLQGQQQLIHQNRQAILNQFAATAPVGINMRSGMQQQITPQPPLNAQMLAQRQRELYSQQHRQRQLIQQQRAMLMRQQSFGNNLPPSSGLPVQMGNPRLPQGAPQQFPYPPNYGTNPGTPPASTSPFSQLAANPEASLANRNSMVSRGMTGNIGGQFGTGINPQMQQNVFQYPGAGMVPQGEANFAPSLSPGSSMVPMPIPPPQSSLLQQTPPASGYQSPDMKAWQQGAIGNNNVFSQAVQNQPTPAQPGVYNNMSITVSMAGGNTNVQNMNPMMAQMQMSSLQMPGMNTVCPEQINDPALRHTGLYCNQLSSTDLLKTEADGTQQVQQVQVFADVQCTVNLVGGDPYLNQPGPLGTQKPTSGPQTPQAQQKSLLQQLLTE
Sequence of Peroxisome proliferator-activated receptor gamma/Nuclear receptor coactivator 2 (P37231 whole entry): as the sequence (P37231 whole entry) above
Sequence of Peroxisome proliferator-activated receptor gamma/Nuclear receptor coactivator 2 (Q15596 whole entry, further chain): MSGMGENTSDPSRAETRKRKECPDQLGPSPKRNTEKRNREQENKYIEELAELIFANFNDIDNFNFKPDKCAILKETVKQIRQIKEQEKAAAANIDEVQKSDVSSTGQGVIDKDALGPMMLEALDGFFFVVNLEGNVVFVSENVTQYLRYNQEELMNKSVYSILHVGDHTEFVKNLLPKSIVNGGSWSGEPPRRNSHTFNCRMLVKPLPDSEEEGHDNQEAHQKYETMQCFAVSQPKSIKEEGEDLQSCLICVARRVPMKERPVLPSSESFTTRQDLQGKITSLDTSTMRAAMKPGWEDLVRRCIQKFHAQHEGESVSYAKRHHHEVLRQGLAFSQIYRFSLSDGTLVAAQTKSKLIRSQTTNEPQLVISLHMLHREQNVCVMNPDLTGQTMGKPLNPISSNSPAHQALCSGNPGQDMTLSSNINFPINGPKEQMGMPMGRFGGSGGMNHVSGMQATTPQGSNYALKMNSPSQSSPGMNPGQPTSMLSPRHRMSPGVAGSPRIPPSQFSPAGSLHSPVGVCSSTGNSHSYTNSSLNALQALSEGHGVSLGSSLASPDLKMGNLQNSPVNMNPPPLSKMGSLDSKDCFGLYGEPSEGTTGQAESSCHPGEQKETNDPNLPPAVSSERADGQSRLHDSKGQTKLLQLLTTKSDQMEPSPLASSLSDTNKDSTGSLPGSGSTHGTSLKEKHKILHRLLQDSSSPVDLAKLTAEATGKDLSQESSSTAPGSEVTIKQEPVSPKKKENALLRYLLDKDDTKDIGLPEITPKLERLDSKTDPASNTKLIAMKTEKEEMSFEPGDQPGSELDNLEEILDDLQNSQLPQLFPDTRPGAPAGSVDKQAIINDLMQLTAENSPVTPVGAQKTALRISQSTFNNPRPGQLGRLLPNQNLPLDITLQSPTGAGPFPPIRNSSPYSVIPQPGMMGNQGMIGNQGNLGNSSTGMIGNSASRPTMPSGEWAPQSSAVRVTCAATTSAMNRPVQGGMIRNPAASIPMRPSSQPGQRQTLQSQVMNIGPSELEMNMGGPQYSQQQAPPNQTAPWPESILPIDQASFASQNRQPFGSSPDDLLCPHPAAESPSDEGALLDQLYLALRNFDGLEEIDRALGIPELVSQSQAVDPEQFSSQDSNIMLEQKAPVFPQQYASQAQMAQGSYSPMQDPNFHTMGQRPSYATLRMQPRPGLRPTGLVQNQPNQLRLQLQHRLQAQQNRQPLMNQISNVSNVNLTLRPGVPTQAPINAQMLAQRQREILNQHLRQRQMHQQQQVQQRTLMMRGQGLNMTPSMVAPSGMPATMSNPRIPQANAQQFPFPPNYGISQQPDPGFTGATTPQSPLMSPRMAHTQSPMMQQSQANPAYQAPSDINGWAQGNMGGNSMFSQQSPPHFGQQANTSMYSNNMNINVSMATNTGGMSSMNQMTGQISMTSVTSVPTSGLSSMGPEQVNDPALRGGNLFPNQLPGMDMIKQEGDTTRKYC
Sequence of Photoreceptor-specific nuclear receptor (Q9Y5X4 whole entry): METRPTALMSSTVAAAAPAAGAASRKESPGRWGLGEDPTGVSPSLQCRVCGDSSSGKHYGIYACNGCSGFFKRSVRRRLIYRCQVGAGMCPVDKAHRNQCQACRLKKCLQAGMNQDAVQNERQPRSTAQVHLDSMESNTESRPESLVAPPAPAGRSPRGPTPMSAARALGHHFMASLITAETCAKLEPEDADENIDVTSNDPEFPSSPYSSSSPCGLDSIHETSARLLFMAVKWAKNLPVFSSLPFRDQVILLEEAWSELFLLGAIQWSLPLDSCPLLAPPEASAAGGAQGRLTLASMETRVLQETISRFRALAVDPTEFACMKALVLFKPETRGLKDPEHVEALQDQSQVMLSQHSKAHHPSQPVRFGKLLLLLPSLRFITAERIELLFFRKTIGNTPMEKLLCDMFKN

Consider `COc1ccccc1N(C(=O)CCl)c1cn(C(C)=O)c2ccccc12`, for which the EC50 with BJ [1] is > 150 µM (inconclusive); in [2], 3.11 µM (active); with BJ [3], 5.21 µM (inconclusive); in the experiment with BJ [4] it was 1.52 µM (active); in the experiment on BJ [8], 5.64 µM (active); on Protein RecA, 0.846 µM (active). Further, the AC50 was 12.8 µM (active) in experiment [5], 1.56 µM (active) at Paired box protein Pax-8, 3.66 µM (active) in experiment [7] and 8.82 µM (active) in [9]. The IC50 in experiment [6] is 1.2 µM (active).
For the compound `Cc1cc(C)c(S(=O)(=O)Nc2ccc3[nH]c(O)nc3c2)c(C)c1`, the EC50 in experiment [10], in experiment [11] and in experiment [12] was > 79.4 µM (not active) each time.
As to `CC(=O)c1ccc(NC(=O)CSc2ccc(-c3ccc4c(c3)OCO4)nn2)cc1`, the IC50 is > 47.1 µM (inactive) in experiment [13], 2.9 µM (active) in experiment [14] and 3.53 µM (active) in experiment [15]. For the same compound, in experiment [16], the EC50 was > 53 µM (inactive).
